Assay results from PubChem BioAssay (NCI).
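Values below derive from 48-hour exposures of cells grown in 96-well plates, with endpoints linearly interpolated between the two concentrations bracketing the appropriate inhibition level. The concentration for 50% growth inhibition is given as GI50. TGI is the concentration that stops growth completely.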

What was measured:
Experiment in all cases: NCI anticancer screen, dose series, 48 h
IGROV1 ovarian = system: IGROV1 ovarian
MDA-MB-435 = system: MDA-MB-435
UO-31 renal = system: UO-31 renal
UACC-62 melanoma = system: UACC-62 melanoma
MDA-MB-231 breast = system: MDA-MB-231 breast
HOP-62 NSCLC = system: HOP-62 NSCLC
HL-60(TB) leukemia = system: HL-60(TB) leukemia
K-562 leukemia = system: K-562 leukemia
HT29 colon = system: HT29 colon
ACHN renal = system: ACHN renal

Structure (SMILES) | GI50 (IGROV1 ovarian) [µM] | TGI (IGROV1 ovarian) [µM] | GI50 (MDA-MB-435) [µM] | TGI (MDA-MB-435) [µM] | GI50 (UO-31 renal) [µM] | TGI (UO-31 renal) [µM] | GI50 (UACC-62 melanoma) [µM] | TGI (UACC-62 melanoma) [µM] | GI50 (MDA-MB-231 breast) [µM] | TGI (MDA-MB-231 breast) [µM] | GI50 (HOP-62 NSCLC) [µM] | TGI (HOP-62 NSCLC) [µM] | GI50 (HL-60(TB) leukemia) [µM] | TGI (HL-60(TB) leukemia) [µM] | GI50 (K-562 leukemia) [µM] | TGI (K-562 leukemia) [µM] | GI50 (HT29 colon) [µM] | TGI (HT29 colon) [µM] | TGI (ACHN renal) [µM] | GI50 (ACHN renal) [µM]
N#CCN/C=C\C(=O)c1ccc(Cl)cc1 | 31 | > 100 | 30.3 | > 100 | 42.1 | > 100 | 15.7 | 49.3 | 31.8 | > 100 | 38.6 | > 100 | 14.2 | > 100 | 31.1 | > 100 |  |  |  | 
COc1ccc(/C=N\Nc2ccc([N+](=O)[O-])cn2)cc1OC |  |  | > 100 | > 100 | 3.14 | > 100 | > 100 | > 100 | 6.82 | > 100 | 10.5 | > 100 |  |  | > 100 | > 100 | > 100 | > 100 |  | 
C=C(Nc1ccc([N+](=O)[O-])cc1[N+](=O)[O-])c1c/c(=N\NC(N)=S)c2ccccc2o1 |  | > 100 |  | > 100 |  | > 100 |  | > 100 |  | > 100 |  | > 100 |  | > 100 |  |  |  | > 100 | > 100 | 
CN/N=C(\C)C(CN(C)C)C(c1ccccc1)c1c(O)c2ccccc2oc1=O (configuration not stated) |  | > 100 |  | > 100 |  | > 100 |  | > 100 |  | > 100 |  | > 100 |  | > 100 |  | > 100 |  | > 100 | > 100 | 
CCN(CC)CCCC(C)N=C(C1=C(C(=NC(C)CCCN(CC)CC)c2cccc(OC)c2)C(=O)NC1=O)c1cccc(OC)c1 (configuration not stated) | 3.67 | 20.6 | 0.871 | 1.68 | 1.39 | 4.27 | 7.71 | 15 | 1.17 | 3.78 | 0.825 | 2.34 | 3.66 | 11.7 | 1.34 | 4.2 | 0.631 | 1.79 |  | 
CCCC(CCC)C(=O)OCC1(CO)C/C(=C\c2ccc(F)cc2)C(=O)O1 (configuration not stated) | 15.5 | 32.7 | 2.43 | 20.9 | 8.35 | 24.4 | 8.16 | 23.8 | 6.98 | 23.9 | 4.11 | 17 | 0.907 | 8.36 | 0.374 | 18 | 13.6 | 27.3 | 23.4 | 9.32
O=C(O)C(Cl)(c1ccccc1)c1ccccc1 |  | > 100 |  | > 100 |  | > 100 |  | > 100 |  | > 100 |  | > 100 |  | > 100 |  | > 100 |  | > 100 | > 100 | 
CCn1c(-c2cc3ccccc3cc2O)nn(C(=O)c2c(Cl)cccc2Cl)c1=S | 6.63 | 16.6 | > 50 | > 50 | 10.5 | 24.8 | 17.2 | > 50 | 44.4 | > 50 | 24.2 | > 50 | 14.3 | 38.7 | 14.3 | > 50 | > 50 | > 50 | > 50 | 16.2
Cc1cc(CC(C)CC(C)(C)C)n(O)c(=O)c1 (configuration not stated) (tested in a mixture with another compound) | 0.464 | 16.7 | 0.559 | 24.9 | 0.379 | 7.01 | 0.305 | 1.08 | 0.45 | > 48.5 | 0.677 | 16.1 | 0.189 | 0.525 | 0.258 | 15.2 | 3.91 | 17.5 | > 37.6 | 0.385
COc1cccc(C2c3cc4c(cc3OC(N3CCCC3)C2C)OCO4)c1O (configuration not stated) |  | 99.1 |  | 4.61 |  | 46.7 |  | 43.7 |  | 45.8 |  | 45.7 |  | 31.5 |  | 57.8 |  | 14.7 | > 88.7 | 
COc1cc(-c2nc(-c3nc4ccccc4[nH]3)cc3c2[nH]c2ccccc23)cc(OC)c1OC | 2.94 | > 100 | 3.65 | > 100 | 3.62 | > 100 | 3.38 | > 100 | 8.38 | > 100 | 5.87 | > 100 | 4.37 | > 100 | 4.33 | > 100 | 6.87 | > 100 | > 100 | 4.86
O=C(/C=C/c1ccccc1)n1c(-c2ccc(Cl)cc2)nc2ccccc21 | 1.95 | 4.63 | 1.11 | 3.04 | 1.1 | 3.55 | 1.27 | 2.88 | 1.88 | 5.18 | 2.72 | 5.17 | 1.4 | 4.88 | 2.09 | 11.8 | 1.51 | 3.71 | 10 | 1.18
CCCCCCCCCCCCCCCCCC(=O)OCC(COC(=O)CCCN)OC(=O)CCCN (configuration not stated) |  | 8.01 |  | 33.2 |  | 3.63 |  | 35.3 |  | 28.2 |  | 33.8 |  | 77 |  | > 100 |  | 33.5 | > 100 | 
COC(=O)Cc1ccc(Oc2cnc3cc(F)c(F)cc3n2)cc1 | > 100 | > 100 | > 100 | > 100 | > 100 | > 100 | > 100 | > 100 | > 100 | > 100 | > 100 | > 100 | 42.5 | > 100 | 31.1 | 94.8 | 58.1 | > 100 | > 100 | > 100
COc1cccc(/C=C/C(=O)c2ccc(Cl)cc2Cl)c1 | 15 | > 50 | 11.1 | 28.6 | 17.4 | > 50 | 8.06 | 15.5 | 8.11 | 15.9 |  |  | 8.9 | > 50 | 3.22 | 26.9 | 15.1 | > 50 | 39.2 | 14.3
CC(C)(C)[Si](C)(C)OC1[C@@H](O[Si](C)(C)C(C)(C)C)[C@@H](CNC(=O)NC(=O)CCl)O[C@H]1n1cnc2c(NC(=O)Nc3ccccc3)ncnc21 (some centres not stated) | 0.111 | 0.233 | 0.835 | 1.75 | 0.0763 | 0.2 | 0.793 | 1.6 | 0.507 | 1.3 | 0.348 | 0.953 | 0.166 | 0.488 | 1.09 | 3.38 | 0.33 | 1.05 | 1.54 | 0.782
Cn1c2ccc(Br)cc2c2c3c(c4c5ccccc5[nH]c4c21)C(=O)N(O)C3=O | 0.262 | 1.07 | 0.18 | 0.498 | 0.0917 | 0.308 | 0.183 | 0.529 | 0.21 | 0.607 | 0.131 | 0.653 | 0.301 | 1.85 | 0.168 |  | 0.23 | 0.658 | 0.244 | 0.0448
COc1cccc(NC(=O)c2sc3nc4c(cc3c2N)C(=O)CCC4)c1 | 0.381 | > 100 | 0.0221 | 0.0548 | 0.449 | > 100 | 0.0749 | > 100 | 0.209 | 7.59 | 0.337 | > 100 | 0.144 | > 100 | 0.0513 | > 100 | 0.0866 | > 100 | > 100 | 0.568
O=C(Cc1ccccc1)Nn1c(-c2ccccc2)nc2ccccc2c1=O |  | > 100 |  | > 100 |  | > 100 |  | > 100 |  | > 100 |  | > 100 |  | > 100 |  | > 100 |  | > 100 | > 100 | 
Cc1nc(N2CCC3(CC2)CO[C@@H](C)[C@H]3N)c(CO)nc1Sc1ccnc(N)c1Cl | 0.629 | > 100 | > 100 | > 100 | 0.973 | > 100 | > 100 | > 100 | > 100 | > 100 | 28 | > 100 | > 100 | > 100 | 0.305 | > 100 | > 100 | > 100 | > 100 | 4.81
COc1ccc(C2SCC(=O)N2NC(=O)c2ccc(NC(C)=O)cc2)cc1 (configuration not stated) |  | > 100 |  | > 100 |  | > 100 |  | > 100 |  | > 100 |  | > 100 |  |  |  | > 100 |  | > 100 | > 100 | 
O=C(CNc1ccccc1[N+](=O)[O-])Nn1c(-c2ccccc2)nc2ccccc2c1=O |  | 34.8 |  | 60.1 |  | 33.7 |  | 23.4 |  | 29.1 |  | 42.8 |  | > 100 |  | 41.9 |  | 33.7 | 56.9 | 
Cc1cc(C)c(Cn2cnc3c(Cl)ncnc32)c(C)c1CCl | > 100 | > 100 | > 100 | > 100 | > 100 | > 100 | 61.3 | > 100 | > 100 | > 100 | > 100 | > 100 | 27.2 | 59.9 | 44.2 | > 100 | 25.8 | > 100 | 14.1 | 0.233
SCCSCCCSCCS |  | > 100 |  | > 100 |  | > 100 |  | > 100 |  | > 100 |  | > 100 |  | 45.6 |  | > 100 |  | > 100 |  | 
CNC(=O)Cc1nc(-c2cccc(NS(=O)(=O)c3c(F)cccc3F)c2F)c(-c2ccnc(Nc3ccccc3)n2)s1 | 0.462 | > 19.6 | 0.0445 | > 44 | 1.22 | 13.7 |  |  | 1.04 | > 15.3 | 3.27 | > 50 | 3.96 | > 50 | 1.09 | > 50 | 0.0327 | > 50 | > 50 | 0.889
Nc1ccn(C2OC(COC(=O)C34CC5CC(CC(C5)C3)C4)C(O)C2O)c(=O)n1 (configuration not stated) |  | > 100 |  | > 100 |  | > 100 |  | > 100 |  | > 100 |  |  |  | > 34.1 |  | > 100 |  | > 100 | > 100 | 
CC(=O)On1c(-c2ccccc2-c2nc3ccccc3n2OC(C)=O)nc2ccccc21 |  | > 100 |  | > 100 |  | > 100 |  | > 100 |  | > 100 |  | > 100 |  | 72.8 |  | > 100 |  |  | > 100 | 
CCC(CNc1cc(OC)cc2cccnc12)NC1CCCCC1 (configuration not stated) | 10.6 | 44.9 | 32.6 | > 100 | 4.47 | > 100 | 40.1 | > 100 | 40.7 | > 100 | 66 | > 100 | 15.2 | 41.7 | 7.68 | 53.8 |  |  | > 100 | 49.7
Cc1cc(N2CCSCC2)nc(NC2CCCC(Nc3ccnc4cc(Cl)ccc34)C2)n1 (configuration not stated) | 1.97 | 5.39 | 1.68 | 3.09 | 1.41 | 2.77 | 1.94 | 3.5 | 1.95 | 3.89 | 1.69 | 3.38 |  |  | 1.14 | 3.41 | 1.61 | 3.98 | 4.46 | 2.06
O=Cc1cccc2c1Oc1c(cccc1C(=O)O)S2 |  | > 100 |  | > 100 |  | > 100 |  | > 100 |  | > 100 |  | > 100 |  |  |  |  |  | > 100 | > 100 | 
